Source: ChEMBL document CHEMBL4665838, “Identification of a novel orally bioavailable NLRP3 inflammasome inhibitor” (Bioorg Med Chem Lett, 2020)
Active and inactive are the calls of the source. The rule behind the calls is not given here.

Experiments:
[1] = target: T1, NACHT, LRR and PYD domains-containing protein 3 (Homo sapiens, UniProt Q96P20); test: Inhibition of NLRP3 in human THP1 cells assessed as inhibition of IL-1beta production at 1 uM relative to control; type: cell-based; conditions: THP-1
T1 sequence (Q96P20 whole entry, the tested form may be a part): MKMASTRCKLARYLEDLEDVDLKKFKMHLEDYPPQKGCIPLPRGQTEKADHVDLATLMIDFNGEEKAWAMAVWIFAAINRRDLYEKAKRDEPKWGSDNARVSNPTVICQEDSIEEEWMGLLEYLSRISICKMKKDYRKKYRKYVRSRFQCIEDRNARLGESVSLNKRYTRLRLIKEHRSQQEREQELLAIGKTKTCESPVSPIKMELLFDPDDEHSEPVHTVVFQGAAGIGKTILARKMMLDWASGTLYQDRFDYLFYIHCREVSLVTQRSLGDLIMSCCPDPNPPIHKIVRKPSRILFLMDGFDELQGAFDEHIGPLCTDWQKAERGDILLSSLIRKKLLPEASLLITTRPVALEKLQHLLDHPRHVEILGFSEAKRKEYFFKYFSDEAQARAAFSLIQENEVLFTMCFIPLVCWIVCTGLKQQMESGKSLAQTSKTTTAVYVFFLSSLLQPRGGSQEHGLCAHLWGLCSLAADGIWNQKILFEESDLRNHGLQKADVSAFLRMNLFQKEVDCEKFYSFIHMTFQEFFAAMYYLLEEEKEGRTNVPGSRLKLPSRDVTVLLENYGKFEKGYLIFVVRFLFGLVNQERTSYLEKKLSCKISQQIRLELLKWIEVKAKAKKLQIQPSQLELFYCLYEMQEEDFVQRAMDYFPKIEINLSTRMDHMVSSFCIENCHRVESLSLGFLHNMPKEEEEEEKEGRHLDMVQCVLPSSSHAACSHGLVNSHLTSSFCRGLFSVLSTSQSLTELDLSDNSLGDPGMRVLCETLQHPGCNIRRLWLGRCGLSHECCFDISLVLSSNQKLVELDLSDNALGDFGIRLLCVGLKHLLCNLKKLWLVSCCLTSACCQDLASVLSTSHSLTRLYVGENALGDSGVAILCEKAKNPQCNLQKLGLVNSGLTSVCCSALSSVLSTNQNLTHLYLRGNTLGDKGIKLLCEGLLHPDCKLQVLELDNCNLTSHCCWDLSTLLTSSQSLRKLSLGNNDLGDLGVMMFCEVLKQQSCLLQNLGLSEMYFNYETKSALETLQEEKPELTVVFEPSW

[2] = target: T1, NACHT, LRR and PYD domains-containing protein 3; test: Inhibition of NLRP3 in human THP1 cells assessed as inhibition of IL-1beta production; type: cell-based, THP-1
[3] = MRT in C57BL/6 mouse at 1 mg/kg, iv; type: ADME, organism-based; conditions: in vivo
[4] = target: T2, Interferon-inducible protein AIM2 (Homo sapiens) (UniProt O14862); test: Inhibition of AIM2 inflammasome (unknown origin)
T2 sequence (whole entry): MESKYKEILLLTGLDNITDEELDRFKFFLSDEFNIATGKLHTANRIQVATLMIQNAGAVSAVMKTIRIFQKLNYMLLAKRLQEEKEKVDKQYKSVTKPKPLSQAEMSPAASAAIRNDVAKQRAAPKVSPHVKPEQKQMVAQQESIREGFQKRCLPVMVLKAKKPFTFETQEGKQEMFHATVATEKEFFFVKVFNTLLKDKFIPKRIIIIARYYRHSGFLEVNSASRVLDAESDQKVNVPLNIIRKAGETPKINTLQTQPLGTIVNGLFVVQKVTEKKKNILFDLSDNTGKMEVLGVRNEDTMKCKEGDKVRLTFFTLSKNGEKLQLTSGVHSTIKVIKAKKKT

[5] = Aqueous solubility of the compound; type: physicochemical; conditions: buffer
[6] = Metabolic stability in mouse liver microsomes; type: ADME, Microsome
[7] = target: Cytochrome P450 2C9 (Homo sapiens, UniProt P11712); test: Inhibition of CYP2C9 (unknown origin); type: ADME
Cytochrome P450 2C9, sequence (P11712 whole entry): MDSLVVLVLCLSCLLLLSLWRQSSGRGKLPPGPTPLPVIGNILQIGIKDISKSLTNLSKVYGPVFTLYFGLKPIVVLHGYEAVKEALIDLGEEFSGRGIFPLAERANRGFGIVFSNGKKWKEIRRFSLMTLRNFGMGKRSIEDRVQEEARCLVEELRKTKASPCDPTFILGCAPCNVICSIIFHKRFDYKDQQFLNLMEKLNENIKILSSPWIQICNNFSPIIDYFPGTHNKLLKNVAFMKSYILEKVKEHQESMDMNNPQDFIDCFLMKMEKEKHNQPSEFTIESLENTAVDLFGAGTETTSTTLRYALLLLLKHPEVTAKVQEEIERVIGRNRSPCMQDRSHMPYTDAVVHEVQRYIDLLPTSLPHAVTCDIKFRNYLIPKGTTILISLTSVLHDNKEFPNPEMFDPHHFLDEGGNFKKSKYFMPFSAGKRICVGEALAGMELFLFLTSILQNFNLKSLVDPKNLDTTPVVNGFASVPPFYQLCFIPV

[8] = Terminal half life in C57BL/6 mouse at 3 mg/kg, po; type: ADME, organism-based; conditions: in vivo, read-out: beta t1/2 (converted)
[9] = MRT in C57BL/6 mouse at 3 mg/kg, po; type: ADME, organism-based; conditions: in vivo
[10] = target: T3, Cytochrome P450 2C8 (Homo sapiens, UniProt P10632); test: Inhibition of CYP2C8 (unknown origin); type: ADME
T3 sequence (P10632 whole entry): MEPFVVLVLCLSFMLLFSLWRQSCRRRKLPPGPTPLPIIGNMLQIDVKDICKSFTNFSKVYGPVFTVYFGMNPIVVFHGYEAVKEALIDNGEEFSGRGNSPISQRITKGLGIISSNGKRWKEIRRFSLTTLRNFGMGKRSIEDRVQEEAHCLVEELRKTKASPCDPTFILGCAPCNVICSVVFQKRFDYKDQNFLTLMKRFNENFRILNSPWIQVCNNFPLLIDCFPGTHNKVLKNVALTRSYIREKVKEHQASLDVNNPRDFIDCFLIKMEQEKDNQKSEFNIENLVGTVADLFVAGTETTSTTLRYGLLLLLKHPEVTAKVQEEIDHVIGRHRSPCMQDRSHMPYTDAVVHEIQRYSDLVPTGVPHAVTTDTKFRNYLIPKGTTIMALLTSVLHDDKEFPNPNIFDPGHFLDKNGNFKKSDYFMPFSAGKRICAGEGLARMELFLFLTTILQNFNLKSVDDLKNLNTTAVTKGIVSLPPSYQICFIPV

[11] = Tmax in C57BL/6 mouse at 3 mg/kg, po; type: ADME, organism-based; conditions: in vivo
[12] = Clearance in C57BL/6 mouse at 1 mg/kg, iv; type: ADME, organism-based; conditions: in vivo
[13] = Initial plasma concentration in C57BL/6 mouse at 1 mg/kg, iv; type: ADME, organism-based
[14] = Metabolic stability in human liver microsomes; type: ADME, Microsome
[15] = AUC (0 to t) in C57BL/6 mouse at 3 mg/kg, po; type: ADME, organism-based; design: dose 3 mg/kg; conditions: in vivo
[16] = Volume of distribution at steady state in C57BL/6 mouse at 1 mg/kg, iv; type: ADME, organism-based; conditions: in vivo, read-out: Vdss
[17] = Oral bioavailability in C57BL/6 mouse at 3 mg/kg; type: ADME, organism-based; conditions: in vivo
[18] = Cmax in C57BL/6 mouse at 3 mg/kg, po; type: ADME, organism-based; design: route oral, dose 3 mg/kg; conditions: in vivo
[19] = Metabolic stability in dog liver microsomes; type: ADME, Canis lupus familiaris, Microsome
[20] = AUC (0 to t) in C57BL/6 mouse at 1 mg/kg, iv; type: ADME, organism-based; design: dose 1 mg/kg; conditions: in vivo
[21] = Terminal half life in C57BL/6 mouse at 1 mg/kg, iv; type: ADME, organism-based; conditions: in vivo, read-out: beta t1/2 (converted)
[22] = Permeability in human Caco2 cells; type: ADME, cell-based; conditions: caco-2
[23] = Metabolic stability in rat liver microsomes; type: ADME, Microsome

COc1cccc(OC)c1NC(=O)NS(=O)(=O)/C=C/c1nccs1
inhibition [1]: < 50%
IC50 [2]: > 1 µM

CC(C)c1cccc(C(C)C)c1NC(=O)NS(=O)(=O)/C=C/c1nccs1
inhibition [1]: < 50%
IC50 [2]: > 1 µM

O=C(Nc1c2c(cc3c1CCC3)CCC2)NS(=O)(=O)/C=C/c1ccccn1
IC50 [2]: 1 µM

O=C(Nc1cc(C(F)(F)F)ccc1C(F)(F)F)NS(=O)(=O)/C=C/c1nccs1
inhibition [1]: < 50%
IC50 [2]: > 1 µM

O=C(Nc1c(F)cccc1C(F)(F)F)NS(=O)(=O)/C=C/c1nccs1
inhibition [1]: < 50%
IC50 [2]: > 1 µM

O=C(Nc1ccccc1C(F)(F)F)NS(=O)(=O)/C=C/c1nccs1
inhibition [1]: < 50%
IC50 [2]: > 1 µM

O=C(Nc1c2c(cc3c1OCC3)OCC2)NS(=O)(=O)/C=C/c1nccs1
inhibition [1]: < 50%

Cc1cc(C)c(C)c(NC(=O)NS(=O)(=O)/C=C/c2nccs2)c1C
inhibition [1]: < 50%
IC50 [2]: > 1 µM

O=C(Nc1c2c(cc3c1CCC3)CCC2)NS(=O)(=O)/C=C/c1nccs1
MRT [3]: 3.23 h
inhibition [4]: inactive
solubility [5]: Soluble
Stabilty [6]: Stable
inhibition (INH) [7]: Active
half-life [8]: 2.86 h
MRT [9]: 4.9 h
inhibition (INH) [10]: Active
Tmax [11]: 0.25 h
clearance [12]: 1.01 mL/min/kg
C0 [13]: 6270 ng/mL
Stabilty [14]: Stable
AUC(0-t) [15]: 48900 ng·h/mL
Vd [16]: 0.2 L/kg
F [17]: 99%
Cmax [18]: 8490 ng/mL
Stabilty [19]: Stable
AUC(0-t) [20]: 16500 ng·h/mL
half-life [21]: 2.35 h
permeability [22]: Permeable
Stabilty [23]: Stable

CC(C)(O)c1coc(S(=O)(=O)NC(=O)Nc2c3c(cc4c2CCC4)CCC3)c1
MRT [3]: 3.22 h
half-life [8]: 1.32 h
MRT [9]: 3.07 h
Tmax [11]: 0.25 h
clearance [12]: 0.8 mL/min/kg
C0 [13]: 22200 ng/mL
AUC(0-t) [15]: 46900 ng·h/mL
Vd [16]: 0.15 L/kg
F [17]: 77%
Cmax [18]: 11700 ng/mL
AUC(0-t) [20]: 20700 ng·h/mL
half-life [21]: 3.97 h

Cc1cnc(/C=C/S(=O)(=O)NC(=O)Nc2c3c(cc4c2CCC4)CCC3)s1
IC50 [2]: 1.06 µM

O=C(Nc1c2c(cc3c1CCC3)CCC2)NS(=O)(=O)/C=C/c1nc2ccccc2s1
inhibition [1]: < 50%
IC50 [2]: > 1 µM
